# From ChEMBL document CHEMBL1201862, “PubChem BioAssay data set” (2004)
# Activity calls are given as the source filed them.
# Key:
# [1] = target: Protein disulfide-isomerase (Homo sapiens, UniProt P07237); test: PDI inhibitors, insulin aggregation turbidity, dose response, biochemical, absorbance, cherry-picked samples (AID 602350); format: functional
# Melanocortin receptor 4 = Melanocortin receptor 4 (Homo sapiens, UniProt P32245); test: MC4R antagonist potency on cAMP, dose response, cell-based, TR-FRET, biased antagonists (AID 602298); format: functional;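 further: antagonist potency against agonist-stimulated cAMP production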
# Melanocortin receptor 4, sequence (P32245 whole entry): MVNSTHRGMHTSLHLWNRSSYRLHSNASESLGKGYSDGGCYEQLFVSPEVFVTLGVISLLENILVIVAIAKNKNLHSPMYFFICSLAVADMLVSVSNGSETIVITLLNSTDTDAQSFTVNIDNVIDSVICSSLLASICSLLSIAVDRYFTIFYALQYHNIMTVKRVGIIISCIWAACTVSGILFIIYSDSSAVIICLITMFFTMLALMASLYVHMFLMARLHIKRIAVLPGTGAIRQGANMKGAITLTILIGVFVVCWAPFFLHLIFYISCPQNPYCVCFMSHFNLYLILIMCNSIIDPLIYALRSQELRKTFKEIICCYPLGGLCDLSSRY
# [2] = nonselective inhibitors of cellular cAMP signaling, dose response, counter-screen for MC4R biased antagonist project, cell-based, TR-FRET cAMP detection (AID 602305); format: functional;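 further: U2OS cells stimulated with forskolin near its EC80 as the cAMP inducer; potency is for inhibition of forskolin-stimulated cAMP signaling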
# [3] = target: 26S proteasome non-ATPase regulatory subunit 14 (Homo sapiens, UniProt O00487); test: inhibition of proteasome subunit RPN11 – biochemical, fluorescence polarization, uHTS hits, confirmation (AID 602368); format: functional
# [4] = Luminescence Cell-Based Dose Response HTS to Identify Inhibitors of 5'UTR Stem-Loop Driven Prion Protein mRNA Translation in H4 Neuroglioblastoma Cells. [Related pubchem assays: 1827 (Project Summary), 1813 (Primary HTS)]; format: functional
# [5] = inhibitors of SNCA 5'UTR-driven reporter translation, confirmation, H4 neuroglioma cells, luminescence (AID 1988); format: functional, cell-based
# Paired box protein Pax-8 = Paired box protein Pax-8 (Homo sapiens, UniProt Q06710); test: inhibitors of PAX8-driven TPO luciferase reporter, dose response, RMG-I cells, cherry-pick (AID 687027); format: functional, cell-based;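 further: luciferase reporter driven by Pax8 target thyroperoxidase promoter measured by SteadyGlo luminescence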
# Paired box protein Pax-8, sequence (Q06710 whole entry): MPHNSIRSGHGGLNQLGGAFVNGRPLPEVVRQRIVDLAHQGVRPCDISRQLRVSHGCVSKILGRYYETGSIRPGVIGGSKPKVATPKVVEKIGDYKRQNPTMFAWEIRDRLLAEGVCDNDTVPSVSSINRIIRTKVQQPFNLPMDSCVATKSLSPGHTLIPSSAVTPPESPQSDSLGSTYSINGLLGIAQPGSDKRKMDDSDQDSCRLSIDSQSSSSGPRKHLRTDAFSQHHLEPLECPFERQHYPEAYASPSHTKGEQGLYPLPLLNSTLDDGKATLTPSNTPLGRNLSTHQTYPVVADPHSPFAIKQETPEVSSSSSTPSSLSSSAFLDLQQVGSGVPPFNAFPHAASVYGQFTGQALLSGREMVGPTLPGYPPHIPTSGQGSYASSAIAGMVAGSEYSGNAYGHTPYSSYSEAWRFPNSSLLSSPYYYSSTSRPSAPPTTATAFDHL
# [6] = target: 72 kDa type IV collagenase (Homo sapiens, UniProt P08253); test: Dose Response validation of uHTS RPN11 inhibitor hits using a MMP-2 Fluorescence assay.; format: functional
# [7] = inhibitors of firefly luciferase expression or activity, dose response, H4 neuroglioma cells, luminescence (AID 1990); format: functional, cell-based
# Prothrombin = Prothrombin (Bos taurus, UniProt P00735); test: thrombin inhibition, dose response, biochemical, fluorescence polarization, uHTS hits (AID 602369); format: functional
# [8] = Counterscreen for activators of the function of SWI/SNF related, matrix associated, actin dependent regulator of chromatin, subfamily a, member 2 (SMARCA2, BRM): Luminescence-based cell-based high throughput dose response assay to identify non-selective compounds using the VP16 reporter assay.; format: functional
# [9] = non-specific cell cytotoxicity, dose response, cytotoxicity control for PAX8 inhibitor project, plate reader, dry powder samples (AID 743021); format: functional, cell-based
# [10] = target: SWI/SNF-related matrix-associated actin-dependent regulator of chromatin subfamily A member 2 (Homo sapiens, UniProt P51531); test: Luminescence-based cell-based high throughput dose response assay to identify activators of the function of SWI/SNF related, matrix associated, actin dependent regulator of chromatin, subfamily a, member 2 (SMARCA2, BRM).; format: functional
# [11] = target: T1, DNA dC->dU-editing enzyme APOBEC-3A (Homo sapiens, UniProt P31941); test: SAR analysis of small molecule inhibitors of APOBEC3A DNA Deaminase via a fluorescence-based single-stranded DNA deaminase assay.; format: functional; settings: read-out: IC50_Mean
# T1 sequence (P31941 whole entry): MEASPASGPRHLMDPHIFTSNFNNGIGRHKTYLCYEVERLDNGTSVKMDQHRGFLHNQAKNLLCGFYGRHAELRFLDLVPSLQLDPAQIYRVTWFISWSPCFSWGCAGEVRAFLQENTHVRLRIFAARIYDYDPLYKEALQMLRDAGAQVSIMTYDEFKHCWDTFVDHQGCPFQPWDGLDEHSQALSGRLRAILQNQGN
# [12] = target: T2, DNA dC->dU-editing enzyme APOBEC-3G (Homo sapiens, UniProt Q9HC16); test: Dose Response confirmation of small molecule APOBEC3G DNA Deaminase Inhibitors via a fluorescence-based single-stranded DNA deaminase assay. [Related pubchem assays (depositor defined):AID493012, AID493028]; format: functional
# T2 sequence (Q9HC16 whole entry): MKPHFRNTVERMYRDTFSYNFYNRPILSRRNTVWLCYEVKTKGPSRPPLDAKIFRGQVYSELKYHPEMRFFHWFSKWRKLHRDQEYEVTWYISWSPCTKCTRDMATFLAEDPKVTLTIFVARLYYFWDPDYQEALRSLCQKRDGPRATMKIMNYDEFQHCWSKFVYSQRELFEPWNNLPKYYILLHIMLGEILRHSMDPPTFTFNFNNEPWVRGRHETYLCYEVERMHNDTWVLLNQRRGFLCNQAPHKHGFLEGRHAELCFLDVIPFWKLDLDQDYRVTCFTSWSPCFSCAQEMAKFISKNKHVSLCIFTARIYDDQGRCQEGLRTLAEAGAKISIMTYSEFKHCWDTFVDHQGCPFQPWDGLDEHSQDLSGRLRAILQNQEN
# [13] = target: T1, DNA dC->dU-editing enzyme APOBEC-3A; test: APOBEC3A DNA deaminase inhibitors, dose response, biochemical (AID 504722); format: functional
# [14] = target: T2, DNA dC->dU-editing enzyme APOBEC-3G; test: APOBEC3G deaminase inhibitors, SAR follow-up, biochemical, fluorescence, single-stranded DNA substrate (AID 602136); format: functional; settings: read-out: IC50_Mean
# [15] = target: T1, DNA dC->dU-editing enzyme APOBEC-3A; test: SAR analysis of small molecule inhibitors of APOBEC3A DNA Deaminase via a fluorescence-based single-stranded DNA deaminase assay - Set 2.; format: functional; settings: read-out: IC50_Mean
# [16] = target: T2, DNA dC->dU-editing enzyme APOBEC-3G; test: SAR analysis of small molecule inhibitors of APOBEC3G DNA Deaminase via a fluorescence-based single-stranded DNA deaminase assay - Set 2.; format: functional; settings: read-out: IC50_Mean
# [17] = target: Benomyl/methotrexate resistance protein (Candida albicans, UniProt P28873); test: CaMdr1 efflux pump inhibitor potency, dose response, singleplex, Cherry Pick1 hits (AID 588608); format: functional
# Benomyl/methotrexate resistance protein, sequence (P28873 whole entry): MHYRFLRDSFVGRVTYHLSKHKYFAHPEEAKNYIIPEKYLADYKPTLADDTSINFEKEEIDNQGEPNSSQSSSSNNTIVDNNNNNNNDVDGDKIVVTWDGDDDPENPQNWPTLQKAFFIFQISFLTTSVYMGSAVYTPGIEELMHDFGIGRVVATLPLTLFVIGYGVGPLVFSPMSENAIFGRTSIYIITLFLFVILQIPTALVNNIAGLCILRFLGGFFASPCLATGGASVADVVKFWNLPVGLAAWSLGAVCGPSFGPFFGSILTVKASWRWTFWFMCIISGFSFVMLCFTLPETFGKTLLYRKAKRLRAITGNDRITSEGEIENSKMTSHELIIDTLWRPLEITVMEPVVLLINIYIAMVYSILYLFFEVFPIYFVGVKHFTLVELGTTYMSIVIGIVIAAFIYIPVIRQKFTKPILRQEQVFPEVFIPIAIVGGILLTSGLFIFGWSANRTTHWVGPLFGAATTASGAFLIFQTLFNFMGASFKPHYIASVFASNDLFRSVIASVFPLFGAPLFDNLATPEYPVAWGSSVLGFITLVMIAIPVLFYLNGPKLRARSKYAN
# [18] = target: Multidrug resistance protein CDR2 (Candida albicans (strain SC5314 / ATCC MYA-2876) (Yeast), UniProt P78595); test: CaCDR2 efflux pump inhibitors in yeast, dose response, S. cerevisiae AD1-8u, singleplex, Cherry Pick1 hits (AID 588604); format: functional
# Multidrug resistance protein CDR2, sequence (P78595 whole entry): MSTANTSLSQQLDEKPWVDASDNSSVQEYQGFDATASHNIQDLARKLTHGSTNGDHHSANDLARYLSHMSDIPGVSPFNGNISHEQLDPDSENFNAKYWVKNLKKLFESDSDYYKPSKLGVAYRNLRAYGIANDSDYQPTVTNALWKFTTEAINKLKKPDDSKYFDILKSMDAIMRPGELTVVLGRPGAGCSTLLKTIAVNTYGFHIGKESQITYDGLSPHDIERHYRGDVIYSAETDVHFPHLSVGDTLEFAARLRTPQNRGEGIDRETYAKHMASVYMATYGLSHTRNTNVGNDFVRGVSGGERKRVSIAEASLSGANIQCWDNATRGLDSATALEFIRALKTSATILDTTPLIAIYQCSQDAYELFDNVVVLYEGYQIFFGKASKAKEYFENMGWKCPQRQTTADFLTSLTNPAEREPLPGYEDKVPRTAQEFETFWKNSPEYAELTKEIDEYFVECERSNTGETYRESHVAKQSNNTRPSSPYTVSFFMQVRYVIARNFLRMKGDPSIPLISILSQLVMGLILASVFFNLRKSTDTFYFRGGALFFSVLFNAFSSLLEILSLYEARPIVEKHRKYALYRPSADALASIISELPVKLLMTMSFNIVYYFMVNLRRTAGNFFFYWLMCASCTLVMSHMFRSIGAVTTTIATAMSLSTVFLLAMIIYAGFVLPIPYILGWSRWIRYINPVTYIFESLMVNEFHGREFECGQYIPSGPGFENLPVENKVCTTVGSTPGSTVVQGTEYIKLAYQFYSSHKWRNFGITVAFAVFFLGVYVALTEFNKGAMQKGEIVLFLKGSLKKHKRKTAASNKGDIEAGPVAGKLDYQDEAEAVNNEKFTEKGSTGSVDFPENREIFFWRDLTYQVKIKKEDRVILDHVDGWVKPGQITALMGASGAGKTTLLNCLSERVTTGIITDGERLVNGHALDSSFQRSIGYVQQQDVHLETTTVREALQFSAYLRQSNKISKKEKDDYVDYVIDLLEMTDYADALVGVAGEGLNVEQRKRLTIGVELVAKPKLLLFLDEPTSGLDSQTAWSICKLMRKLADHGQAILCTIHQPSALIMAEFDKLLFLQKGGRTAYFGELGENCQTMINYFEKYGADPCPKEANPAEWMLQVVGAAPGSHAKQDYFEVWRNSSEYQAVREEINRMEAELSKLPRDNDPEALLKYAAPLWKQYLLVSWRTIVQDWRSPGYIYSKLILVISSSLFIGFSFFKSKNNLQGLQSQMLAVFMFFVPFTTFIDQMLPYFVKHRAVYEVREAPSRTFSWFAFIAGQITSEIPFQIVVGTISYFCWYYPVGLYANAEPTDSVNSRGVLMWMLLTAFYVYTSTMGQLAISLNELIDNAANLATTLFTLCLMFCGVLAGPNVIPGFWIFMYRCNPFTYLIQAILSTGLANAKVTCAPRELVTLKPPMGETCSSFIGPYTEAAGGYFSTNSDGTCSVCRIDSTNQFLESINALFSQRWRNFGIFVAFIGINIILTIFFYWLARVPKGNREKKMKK
# ORF 73 = ORF 73 (Human herpesvirus 8, UniProt O40947); test: inhibitors of C-LANA binding to LBS DNA, dose response, biochemical, fluorescence polarization, cherry-picked samples (AID 504725); set-up: species or system Human gammaherpesvirus 8;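 further: fluorescence polarization of a labeled DNA duplex reporting LANA DNA binding; potency is for inhibitors that block LANA binding to the DNA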
# ORF 73, sequence (O40947 whole entry): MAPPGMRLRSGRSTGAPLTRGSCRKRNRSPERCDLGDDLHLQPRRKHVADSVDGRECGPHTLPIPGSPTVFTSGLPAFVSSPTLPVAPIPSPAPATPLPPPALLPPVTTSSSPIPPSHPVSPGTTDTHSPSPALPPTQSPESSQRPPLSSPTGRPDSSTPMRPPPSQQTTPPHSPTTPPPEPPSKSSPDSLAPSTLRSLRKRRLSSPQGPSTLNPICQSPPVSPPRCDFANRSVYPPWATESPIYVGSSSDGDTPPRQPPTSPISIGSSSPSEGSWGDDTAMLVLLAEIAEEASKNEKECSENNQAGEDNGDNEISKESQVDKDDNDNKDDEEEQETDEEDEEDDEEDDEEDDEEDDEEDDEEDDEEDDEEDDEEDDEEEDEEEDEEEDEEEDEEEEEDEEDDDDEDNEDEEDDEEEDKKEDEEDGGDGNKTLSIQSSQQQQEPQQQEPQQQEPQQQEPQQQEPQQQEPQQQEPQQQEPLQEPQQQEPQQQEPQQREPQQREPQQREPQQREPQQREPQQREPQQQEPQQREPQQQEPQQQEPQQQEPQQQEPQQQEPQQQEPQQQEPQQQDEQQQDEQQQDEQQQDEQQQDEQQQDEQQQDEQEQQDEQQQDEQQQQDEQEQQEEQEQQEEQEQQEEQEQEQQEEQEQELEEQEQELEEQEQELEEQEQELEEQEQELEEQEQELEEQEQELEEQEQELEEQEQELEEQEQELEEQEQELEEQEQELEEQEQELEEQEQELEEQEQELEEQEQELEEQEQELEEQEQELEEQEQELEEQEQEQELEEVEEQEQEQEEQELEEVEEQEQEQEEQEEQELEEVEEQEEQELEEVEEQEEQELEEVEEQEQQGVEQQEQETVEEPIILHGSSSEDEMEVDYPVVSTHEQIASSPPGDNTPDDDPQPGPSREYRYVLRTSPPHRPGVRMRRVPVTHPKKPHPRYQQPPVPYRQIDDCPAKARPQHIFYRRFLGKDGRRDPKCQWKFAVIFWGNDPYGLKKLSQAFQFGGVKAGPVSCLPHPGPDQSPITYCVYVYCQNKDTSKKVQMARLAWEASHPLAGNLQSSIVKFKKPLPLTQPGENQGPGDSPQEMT
# Protein disulfide-isomerase, sequence (P07237 whole entry): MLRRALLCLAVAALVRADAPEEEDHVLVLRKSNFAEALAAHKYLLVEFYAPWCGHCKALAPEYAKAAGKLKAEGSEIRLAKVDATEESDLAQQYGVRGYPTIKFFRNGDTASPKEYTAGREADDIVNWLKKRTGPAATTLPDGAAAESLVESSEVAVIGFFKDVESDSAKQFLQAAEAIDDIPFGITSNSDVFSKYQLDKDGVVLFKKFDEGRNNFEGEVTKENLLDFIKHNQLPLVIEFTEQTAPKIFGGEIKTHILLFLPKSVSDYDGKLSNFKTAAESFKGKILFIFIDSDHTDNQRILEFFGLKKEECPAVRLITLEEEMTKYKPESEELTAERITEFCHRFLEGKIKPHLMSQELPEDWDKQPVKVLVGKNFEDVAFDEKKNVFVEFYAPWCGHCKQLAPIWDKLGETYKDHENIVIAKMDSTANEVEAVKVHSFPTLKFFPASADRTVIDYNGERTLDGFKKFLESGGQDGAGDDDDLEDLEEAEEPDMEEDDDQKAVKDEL
structure (smiles),measurement,setting,value
COc1ccc(N2CCN(CC(=O)c3ccc(O)c(C)c3O)CC2)cc1,AC50,[1],19.5 µM (active)
Cc1ccc(CNC(=O)COC(=O)Cn2nc(C)c([N+](=O)[O-])c2C)cc1,IC50,Melanocortin receptor 4,14.4 µM (inactive)
same,IC50,[2],> 64.6 µM (inactive)
COc1ccc(-n2nc3c(N4CCC(C(=O)NCc5cccc(C)c5)CC4)nnc(C)c3c2C)cc1,IC50,[3],29.3 µM (active)
same,EC50,[4],12 µM (active)
same,EC50,[5],6.99 µM (active)
same,AC50,Paired box protein Pax-8,5.58 µM (active)
same,IC50,[6],> 100 µM (inactive)
same,EC50,[7],9.83 µM (active)
same,IC50,Prothrombin,48.7 µM (active)
same,EC50,[8],> 91.1 µM (inactive)
same,AC50,[9],23.8 µM (active)
same,EC50,[10],> 91.1 µM (inactive)
S=c1[nH]nc2c3c4c(sc3ncn12)CCCC4,IC50,[11],> 99 µM (inactive)
same,IC50,[12],0.992 µM (active)
same,IC50,[13],> 100 µM (inactive)
same,IC50,[14],3.15 µM (active)
same,IC50,[15],> 99 µM (inactive)
same,IC50,[16],> 99 µM (inactive)
O=C1/C(=C/c2ccco2)Oc2c1ccc(O)c2CN1CCCCC1,EC50,[17],9.63 µM (active)
same,EC50,[18],18.4 µM (active)
same,AC50,ORF 73,14.5 µM (active)
